Reference: patent US20250222143A1, “TARGETED RADIOTHERANOSTICS BASED ON POLYAZAMACROCYCLIC, MIXED-DONOR SCAFFOLDS LINKED TO A TARGETING VECTOR” (The Research Foundation for the State University of New York, priority 2021, published 2025)
Values joined by “and” are separate entries in the source; they are usually repeats but may differ in a detail not shown here. Equal values may be shown once. Read-outs that look alike come from different tables or passages of the source.

How the values were obtained:
human serum albumin [1] = biological target: T1, human serum albumin (Homo sapiens, UniProt P02768); experiment: Binding to human serum albumin (ultrafiltration, Lu in filtrate by ICP-OES)
T1 sequence (P02768 25-609): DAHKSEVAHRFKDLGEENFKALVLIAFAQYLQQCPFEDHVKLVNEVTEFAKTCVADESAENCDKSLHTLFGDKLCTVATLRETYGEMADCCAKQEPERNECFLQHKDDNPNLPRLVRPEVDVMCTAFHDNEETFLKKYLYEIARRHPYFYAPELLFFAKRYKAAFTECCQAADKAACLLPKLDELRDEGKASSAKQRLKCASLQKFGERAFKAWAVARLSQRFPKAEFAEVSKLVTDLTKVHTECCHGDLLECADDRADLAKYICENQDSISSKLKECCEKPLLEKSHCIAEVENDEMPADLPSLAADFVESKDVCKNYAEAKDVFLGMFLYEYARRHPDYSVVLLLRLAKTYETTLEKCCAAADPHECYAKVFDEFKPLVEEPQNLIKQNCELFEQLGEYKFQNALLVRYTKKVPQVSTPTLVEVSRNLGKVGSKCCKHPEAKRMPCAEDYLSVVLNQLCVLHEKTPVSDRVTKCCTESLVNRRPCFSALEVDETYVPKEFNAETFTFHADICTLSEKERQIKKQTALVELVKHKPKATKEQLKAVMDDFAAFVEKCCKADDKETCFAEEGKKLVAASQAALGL
Procedure: (§1) To measure HSA binding of the complexes, a 0.1 mM solution (determined by ICP-OES) of the corresponding ^natLu complex in 4.5% w/v HSA was prepared and pipetted into an Amicon Ultra-0.5 Centrifugal Filter Unit (50 KDa cutoff, Millipore, UFC500396). The mixture was incubated at 37° C. for 15 min and subsequently centrifuged at 12000 rpm for 10 min. Binding is determined by measurement of Lu content in the filtrate by ICP-OES and compared to non-specific binding to the filter in absence of HSA.
(§2) To this end, each ligand was incubated at 37° C. for 15 minutes in PBS with or without 4.5% human serum albumin to simulate in vivo protein concentration. Each mixture was filtered through a 50 KDa MW cutoff filter and the ^natLu content of the filtrate was measured by ICP-OES. ^natLu-mpaten was used as a chelator-only control with no targeting functionality and thus no expected interaction with human serum albumin.

PSMA [2] = biological target: T2, PSMA (Homo sapiens, UniProt Q04609); details: value taken from literature; cited from earlier work
T2 sequence (Q04609 whole entry): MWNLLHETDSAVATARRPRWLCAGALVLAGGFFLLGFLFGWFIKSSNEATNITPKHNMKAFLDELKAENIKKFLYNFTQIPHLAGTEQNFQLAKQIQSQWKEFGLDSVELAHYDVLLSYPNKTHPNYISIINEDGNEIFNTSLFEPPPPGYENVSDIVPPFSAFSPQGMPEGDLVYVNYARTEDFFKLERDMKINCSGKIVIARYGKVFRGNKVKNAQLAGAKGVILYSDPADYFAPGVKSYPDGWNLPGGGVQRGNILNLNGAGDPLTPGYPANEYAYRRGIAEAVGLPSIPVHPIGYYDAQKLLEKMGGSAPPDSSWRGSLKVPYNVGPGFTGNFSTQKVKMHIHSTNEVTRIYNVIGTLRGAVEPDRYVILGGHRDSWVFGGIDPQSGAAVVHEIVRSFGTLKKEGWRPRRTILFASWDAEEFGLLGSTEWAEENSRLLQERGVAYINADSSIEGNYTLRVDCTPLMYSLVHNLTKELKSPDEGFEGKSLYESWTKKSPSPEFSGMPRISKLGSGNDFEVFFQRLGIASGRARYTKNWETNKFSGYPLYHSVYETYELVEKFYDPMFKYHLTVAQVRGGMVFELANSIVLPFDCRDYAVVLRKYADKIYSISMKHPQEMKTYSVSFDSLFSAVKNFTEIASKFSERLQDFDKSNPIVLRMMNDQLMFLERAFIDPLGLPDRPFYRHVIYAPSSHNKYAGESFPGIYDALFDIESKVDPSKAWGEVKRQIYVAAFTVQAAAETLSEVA

human serum albumin [3] = biological target: T1, human serum albumin; details: 15 min, 0.1 mM
Procedure: as §1, §2

[4] = Formulation stability of [Sc-^18F(picaga-DUPA)]^- by radioHPLC; type: physicochemical
Procedure: The stability of [Sc-^18F(picaga-DUPA)]^− in both DPBS and saline was evaluated for up to 4 h. It was determined that [Sc-^18F(picaga-DUPA)]^− was stable in both DPBS and saline for at least 4 h (FIG. 7A, B).
The [^18F]KF stock solution was prepared as previously described (39.4 mCi, 693 μL, pH 2.5). The Sc-^18F precursor was formed via direct addition of 200 μL 0.25 M ammonium acetate (pH 4.1) buffer and 20 nmol ScCl3 stock (0.25 eq.) to the [^18F]KF stock. Following incubation at room temperature for 10 minutes, 79.8 nmol picaga-DUPA (1 eq.) was added to 400 μL of the Sc-^18F precursor stock solution (13.11 mCi), then incubated at 100° C. for 25 minutes. The major [^18F]Sc—F(picaga)-DUPA species was separated the minor isomer and Sc-^18F via analytical radioHPLC (Method C). (FIG. 34) Purified [^18F]Sc—F(picaga)-DUPA complex was concentrated to dryness under reduced pressure and formulated for injection in DPBS (2.11 mCi, 550 μL). Dose formulation stability was analyzed at 0 and 4 hours (FIG. 34A), before and after in vivo experiments, via radioHPLC (Method C). Apparent molar activity: 164 mCi/μmol.

[5] = cited from earlier work
[6] = Spectrophotometric pH-dependent titration (complex formation pKa, speciation); type: physicochemical
Excerpt: As was previously shown, radiolabeling of Lu-177 with L1 is not feasible at room temperature, in part due to the comparatively high formation pKa of the [Lu(L1)] coordination complex (pH 2.4) (Vaughn, B. A. et al. 2021).

PSMA + and PSMA − tumors = details: previous work, 2 h post-injection, n = 4, cited from earlier work
PSMA+PC-3 PIP tumors [7] = experiment: Single dose radiotherapy study in PC-3 PIP tumor-bearing mice; details: single dose 3.7 MBq
Procedure: Twelve-week-old male mice were inoculated subcutaneously on the right shoulder with PSMA+PC-3 PIP cells (0.7×10^6/mouse in 1:2 DPBS pH 7.4: Matrigel). Tumors grew nine days before treatment with an approximate volume of 100 mm^3 at day 0. Three groups of mice (n=6) (cohort A, B, and C) with statistically similar body weights and tumor volumes were injected at day 0 of the therapy study. Group A received saline only. […] Following administration of radioligand or vehicle, the mice were monitored by measuring the tumor size and body weight over 60 days. Mice were euthanized when the predefined end point criteria were reached, or when the study was terminated at day 60. The relative body weight (RBW) was defined as [BWx/BW0], where BWx is the body weight in grams at a given day x and BW0 is the body weight in grams on day 0. The tumor dimension was determined by measuring the longest tumor axis (L) and its perpendicular axis (W) with a digital caliper. The tumor volume (V) was calculated according to the equation [V=0.5×(LW^2)].

[8] = Whole body activity clearance (dose calibrator); design: species or system mice; details: mouse, in vivo
Procedure: Whole body activity was measured by placing each mouse into a dose-calibrator. % Remaining activity was given by =[At/At=0] where At is the decay-corrected whole body activity at time t and At-0 is the total activity measured by dose calibrator p.i. The data were fit to a one-phase decay curve in GraphPad Prism and the biological decay constant K was calculated to be K=0.005638 h^−1 for ^177Lu-(picaga)-HSA and K=0.1415 h^−1 for ^177Lu-PSMA-617.
To approximate clearance of the ^177Lu-constructs, therapy cohort treated with ^177Lu-(picaga)-HSA and ^177Lu-PSMA-617 were monitored for residual whole-body activity remaining in the mouse. The whole-body activity remaining was plotted and the biological half-life in PSMA+tumor-bearing mice was determined using nonlinear regression in Graph Pad Prism (FIG. 16; Table 5). […] This is attributable to both the longer blood half-life because of the HSA-binding functionality and to the enhanced tumor uptake afforded by the longer blood circulation.

PSMA+PC3 PIP cells = experiment: Cell uptake and internalization; type: cell-based
Procedure: The binding and internalization of ^177Lu-(picaga)-HSA and ^177Lu-PSMA-617 was evaluated in PSMA+PC3 PIP cells. In brief, 5×10^5 PC3 PiP cells are suspended, washed and aliquoted. The internalized fraction is determined using ^177Lu-ligand in PC3 PiP cells, with ligands radiolabeled at a specific activity of 0.08 mCi/nmol (3.0 MBq/nmol) and diluted in PBS. […] Subsequently, cell samples were lysed by addition of NaOH (1 M, 1 mL) to release cellular contents and internalized ^177Lu-(picaga)-HSA. Radioactive counts are quantitated separately using a gamma well counter, with each incubation conducted in triplicate.

[9] = Dose formulation stability of ^177Lu-radiolabeled ligands by radio-HPLC; type: physicochemical; details: DMSO:NH4OAc:phosphate buffered saline, room temperature
Procedure: The stability for ^177Lu-radiolabeled ligands was evaluated by radio-HPLC for radiolytic degradation and decomplexation at relevant time points concentrations for dose preparation, storage, and administration. (picaga)-HSA was radiolabeled as previously described at a specific activity of 0.08 mCi/nmol (3.0 MBq/nmol) and diluted in PBS. A 0.1 mL aliquot was removed, stored at room temperature, and tested for stability by radio-HPLC. The activity concentration at t=0 was 0.12 mCi in 0.1 mL.
Under the same conditions, ^177Lu-PSMA-617 was determined to be 80% intact.

PSMA+PC-3 PIP tumors [10] = experiment: Pilot therapy study with ^177Lu-picaga-DUPA; details: 3.3 MBq, n = 4, 14 days
Procedure: Twelve-week-old male mice were inoculated subcutaneously on the right shoulder with PSMA+PC-3 PIP cells (0.7×10^5/mouse in 1:1 DPBS pH 7.4: Matrigel). Tumors grew nine days before treatment with an approximate volume of 100 mm^3 at day 0. One group of mice (n=4) (cohort D) with statistically similar body weights and tumor volumes were injected at day 0 of the therapy study. Group D received 3.3 MBq of the radioligand via tail vein injection (^177Lu-picaga-DUPA). Following administration of radioligand, the mice were monitored by measuring the tumor size and body weight over 14 days. Mice were euthanized when the predefined end point criteria were reached, or when the study was terminated at day 14. The relative body weight (RBW) was defined as [BWx/BW0], where BWx is the body weight in grams at a given day x and BW0 is the body weight in grams on day 0. The tumor dimension was determined by measuring the longest tumor axis (L) and its perpendicular axis (W) with a digital caliper. The tumor volume (V) was calculated according to the equation [V=0.5×(LW^2)]. The relative tumor volume (RTV) was defined as [TVx/TV0], where TVz is the tumor volume in mm^3 at a given day x, and TV0 is the tumor volume in mm^3 at day 0.

PSMA [11] = biological target: T2, PSMA; experiment: Displacement assay against ^99mTc(CO)3-MIP-1427 for binding affinity to PSMA; details: displacement of ^99mTc-MIP-1427, DCFPyL as internal reference; read-out: affinity (Ki) to the PSMA target
Procedure: Stock solutions of Lu-(picaga)-HSA in (DMSO: H2O, 1:5) were prepared and concentrations were determined by ICP-OES in accordance with previously published method.
The Ki was determined by nonlinear regression analysis using GraphPad Prism software.
Prior to the assessment of the ^177Lu-labeled compounds, binding affinity to the biological target PSMA was evaluated.

## O=C([O-])CN1CCN(CC(=O)[O-])CCN(Cc2cccc(C(=O)[O-])n2)CC1.[Lu+3] [Lu-mpaten]
Human serum albumin [1]; 4.5% HSA in PBS vs PBS, chelator-only control
  difference in compound in the filtrate with or without HSA: no significant difference

## O=C(O)CC[C@H](NC(=O)N[C@@H](CCCCNC(=O)[C@H](Cc1ccc2ccccc2c1)NC(=O)[C@H]1CC[C@H](CNC(=O)CN2CCN(CC(=O)O)CCN(CC(=O)O)CCN(CC(=O)O)CC2)CC1)C(=O)O)C(=O)O [PSMA-617]
PSMA [2]
  Ki: 6.9 ± 1.3 nM
Human serum albumin [3]
  binding to HSA compared to PBS: 55±1.2%

## O=C([O-])CN1CCN(Cc2cccc(C(=O)[O-])n2)CCN(C(CCC(=O)NCCCCCNC(=O)CCC(NC(=O)NC(CCC(=O)O)C(=O)O)C(=O)O)C(=O)[O-])CC1.[18F-].[Sc+3] (stereo not drawn) [Sc-^18F(picaga)-DUPA]
[4]; DPBS, evaluated for up to 4 h
  stability in DPBS: at least 4 h
[4]
  radioHPLC after purification and storage in PBS for 4 hours: no detectable decomposition even after 4 hours
[4]; listed as [^18F]Sc—F(picaga)-DUPA
  radioHPLC after purification and storage in PBS for 4 hours: No degradation or defluorination is observed
[4]; saline, evaluated for up to 4 h
  stability in saline: at least 4 h

## O=C([O-])CN1CCNCCN(CC(=O)[O-])CC1.[Al+3].[OH-] [[(Al(NO2A)(OH)], reference compound]
[5]; literature
  pH at which hydroxide complex can form: < 5

## O=C([O-])CN1CCN(CC(=O)[O-])CCN(Cc2cccc(C(=O)[O-])n2)CC1.[Lu+3] [[Lu(L1)]]
[5]; previously shown (Vaughn, B. A. et al. 2021)
  complex formation pKa (pH of first complex species): 2.4

## O=C([O-])CN1CCN(CC(=O)[O-])CCN(Cc2cccc(P(=O)([O-])[O-])n2)CC1.[Lu+3] [[Lu(L2)]]
[6]
  complex formation pKa (pH of first complex species): 0.9

## O=C([O-])CN1CCN(CC(=O)[O-])CCN(Cc2cccc(C(=O)[O-])n2)CC1.[OH-].[Sc+3] [[Sc(mpatcn)(OH)]^−]
[5]; deprotonation of Sc-bound inner sphere water, literature
  pKa of hydroxide complex: 9.1

## O=C([O-])CN1CCN(Cc2cccc(C(=O)[O-])n2)CCN(C(CCC(=O)NCCCCCNC(=O)CCC(NC(=O)NC(CCC(=O)O)C(=O)O)C(=O)O)C(=O)[O-])CC1.[47Sc+3] (stereo not drawn) [^47Sc(picaga)-DUPA]
PSMA + and PSMA − tumors; Blood
  Blood 2 h: 0.19 ± 0.14 % ID/g
PSMA + and PSMA − tumors; Bone
  Bone 2 h: 0.12 ± 0.06 % ID/g
PSMA + and PSMA − tumors; Heart
  Heart 2 h: 0.11 ± 0.03 % ID/g
PSMA + and PSMA − tumors; Kidney
  Kidney 2 h: 7.13 ± 3.73 % ID/g
PSMA + and PSMA − tumors; Liver
  Liver 2 h: 1.22 ± 1.88 % ID/g
PSMA + and PSMA − tumors; Muscle
  Muscle 2 h: 0.08 ± 0.03 % ID/g
PSMA + and PSMA − tumors; PSMA + Tumor
  PSMA + Tumor 2 h: 12.74 ± 2.87 % ID/g
PSMA + and PSMA − tumors; PSMA − Tumor
  PSMA − Tumor 2 h: 0.77 ± 1.11 % ID/g
PSMA + and PSMA − tumors; Sm. Int.
  Sm. Int. 2 h: 0.18 ± 0.07 % ID/g
PSMA + and PSMA − tumors; Spleen
  Spleen 2 h: 0.24 ± 0.10 % ID/g

## O=C([O-])CN1CCN(CC(=O)[O-])CCN(CC(=O)NCC2CCC(C(=O)N[C@@H](Cc3ccc4ccccc4c3)C(=O)NCCCC[C@H](NC(=O)N[C@@H](CCC(=O)O)C(=O)O)C(=O)O)CC2)CCN(CC(=O)[O-])CC1.[177Lu+3] (stereo partly drawn) [^177Lu-PSMA-617, reference compound]
PSMA+PC-3 PIP tumors [7]
  relative body weight during therapy study: dropped during the study
PSMA+PC-3 PIP tumors [7]; PC-3 PIP tumor-bearing mice
  tumor growth / survival compared to control cohort: marginally enhanced survival and delayed tumor growth
PSMA+PC-3 PIP tumors [7]; PC-3 PIP tumor-bearing mice, study to day 60
  median survival: 21 days
[8]
  biological decay constant K: 0.1415 h^−1
  biological half-life t1/2: 4.9 h
[8]; 0 h
  % activity remaining in whole body p.i., 0 h: 100.00 ± 0.00%
[8]; 24 h
  % activity remaining in whole body p.i., 24 h: 3.35 ± 0.16%
PSMA+PC3 PIP cells; 2 h
  % Internalization 2 h: 33.53±1.40% and 33.53%
  % Uptake 2 h: 6.36±0.43% and 6.36%
PSMA+PC3 PIP cells; 4 h
  % Internalization 4 h: 36.11±2.93% and 36.11%
  % Uptake 4 h: 6.15±0.21% and 6.15%
PSMA+PC3 PIP cells; 24 h
  % Internalization 24 h: 50.93±2.14% and 50.93%
  % Uptake 24 h: 9.60±0.11% and 9.60%
PSMA+PC3 PIP cells; blocking with unlabeled glu-urea-glu PSMA targeting molecule
  % Uptake Blocking: 0.45±0.03% and 0.45%
[9]; 4 h
  complex stability in dose formulation, 4 h: >99%
[9]; 24 h
  complex stability in dose formulation, 24 h: >99%
[9]; 48 h
  complex stability in dose formulation, 48 h: >99%
[9]; 14 d
  complex stability in dose formulation, 14 d (% intact): 80%

## O=C([O-])CN1CCN(Cc2cccc(C(=O)[O-])n2)CCN(C(CCC(=O)NCCCCCNC(=O)CCC(NC(=O)NC(CCC(=O)O)C(=O)O)C(=O)O)C(=O)[O-])CC1.[177Lu+3] (stereo not drawn) [^177Lu-picaga-DUPA]
PSMA+PC-3 PIP tumors [10]
  delay in tumor growth (pilot data): delay in tumor growth for ^177Lu-PSMA-617 was similar to the delay observed in our pilot data

## O=C([O-])CN1CCN(Cc2cccc(C(=O)[O-])n2)CCN(C(CCC(=O)NC(CCCCNC(=O)CCCc2ccc(I)cc2)C(=O)NCC2CCC(C(=O)NC(Cc3ccc4ccccc4c3)C(=O)NCCCCC(NC(=O)NC(CCC(=O)O)C(=O)O)C(=O)O)CC2)C(=O)[O-])CC1.[Lu+3] (stereo not drawn) [^natLu-(picaga)-HSA]
Human serum albumin [1]; 0.1 mM ^natLu complex, 4.5% HSA in PBS, 37° C., 15 min, 50 KDa filter
  binding to HSA compared to PBS: 80±3.3%
PSMA [11]
  Ki: 1.4 ± 0.6 nM
